Measured values taken from patent EP0527720B1, “THERAPEUTIC AGENTS” (The Boots Company PLC, priority 1989, dated 1990).

Tested on: heart failure patients
Experiment: Earlier clinical studies of flosequinan 150 mg alone in heart failure patients
Assay type: in vivo, human
Conditions: heart failure patients receiving 150 mg doses of flosequinan
Text: An increase of heart rate is generally an undesirable effect in the treatment of heart failure since additional stress is placed on the failing heart. Furthermore, patients receiving such therapy may report adverse drug events associated with the increase in heart rate such as tachycardia and palpitations. These undesirable side effects of vasodilatory drug therapy effectively limit the maximum dose of the drug which can be safely administered.
This was particularly remarkable since no increase in heart rate (HR) was apparent. This implies that the increase in cardiac output (CO) evident after coadministration of captopril and flosequinan is due to an increase in stroke volume and not due, at least in part, to an increase in heart rate (HR) as expected.

In the case of `Cn1cc([S+](C)[O-])c(=O)c2ccc(F)cc21` (stereo not shown) [flosequinan, 7-fluoro-1-methyl-3-methylsulphinyl-4-quinolone], the heart rate is reported as “an increase of heart rate occurs”.
